Reference: patent publication US20240245693A1, “COMPOSITIONS AND METHODS OF TISSUE REGENERATION THERAPY” (The Regents of the University of California, priority 2021, published 2024)
“Also recorded” adds a separate entry of the source.

Tests used:
human dermal fibroblasts = experiment: in vitro collagen synthesis assay using human dermal fibroblasts; type: cell-based
Experimental: Without serotonin (5-HT) supplementation, the majority of selected compounds maintained fibroblastic collagen synthesis.
(§1) High throughput screening (HTS) of well-defined chemical compounds was performed using Npas2-LacZ reporter mouse skin fibroblasts. Chemical genomics analysis of hit compounds indicated the involvement of monoamine-related pathways for regulating Npas2 expression. To identify the regulatory mechanism of Npas2 in human dermal fibroblasts, a library of lentivirus expression vectors containing human monoamine-related genes was selected for over-expression study.

Npas2 = Npas2 expression in human dermal fibroblasts; type: cell-based; details: serotonin supplementation; FIG. 9F
Experimental: FIGS. 9A-9G show the effect of HTR1B and HTR2B on human dermal fibroblasts.
as §1

[1] = system: human periodontal ligament MSC (PDLSC); experiment: in vitro osteogenic differentiation assay using human periodontal ligament stem cells (PDLSC); type: cell-based; details: supplementation of compound; FIG. 8
[2] = system: mouse splinted skin wound; experiment: mouse excisional splinted skin wound healing model, topical application; type: in vivo; details: daily topical application at 5 micromolar in 10% DMSO vehicle; FIG. 5
Description: FIGS. 1A-1B show wound healing in mouse excisional skin wound splinting model, wherein a splinting ring is tightly adhered to the skin around the wound, thereby preventing local skin contraction. The wound is thus healed through a process of granulation and re-epithelialization similar to that occurring in human. The figures present a time course healing of skin splinted wound in wild type (WT) (FIG. 1A) and Npas2 KO mice (FIG. 1B).
Skin of experimental animals such as mice are similarly composed of multiple tissues; however excisional wound heals faster in part due to active wound contraction. Therefore, mouse wound healing model employs a silicone stent around the excisional skin, which prevents contraction allowing the healing through re-epithelialization and granulation tissue formation. The mouse splinted skin wound model has provided a common experimental platform, which allows investigation of critical molecules for skin wound healing using genetically manipulated mice. Knockout mutation of wound inflammation related molecules such as Sphingosine kinase-1 or mast cell proteases was reported to delay the wound closure and the proliferative phase of healing, respectively.
High throughput screening (HTS) of well-defined chemical compounds was performed using Npas2-LacZ reporter mouse skin fibroblasts. […]

Structure (SMILES) | in vitro collagen synthesis of human dermal fibroblasts (human dermal fibroblasts; serotonin supplementation, FIG. 9E) | Npas2 expression of human dermal fibroblasts (Npas2) | fibroblastic collagen synthesis (human dermal fibroblasts; in the presence of 10 μM 5-HT supplementation, FIG. 4) | osteogenic differentiation of PDLSC [1] | wound closure and skin tissue regeneration [2]
NCCc1c[nH]c2ccc(O)cc12 [serotonin] | decreased | increased | – | – | –
N#Cc1cc(CN2CCC(Nc3ncnc4sc(Cl)cc34)CC2)ccc1F [PRX-08066, 5-[[4-[(6-chlorothieno[2,3-d]pyrimidin-4-yl)amino]piperidin-1-yl]methyl]-2-fluorobenzonitrile] | – | – | high level of collagen synthesis | effective compound; also recorded: enhanced the differentiation of PDLSC | significant wound closure and skin tissue regeneration
CN1CCC(=C2c3ccccc3C=Cc3ccccc32)CC1 [Cyproheptadine, 1-methyl-4-(2-tricyclo[9.4.0.03,8]pentadeca-1(15),3,5,7,9,11,13-heptaenylidene)piperidine] | – | – | – | – | significant wound closure and skin tissue regeneration
